Test results published in ChEMBL document CHEMBL6115010, “Targeting glioma with heteroaromatic alkaloids: A review of potential therapeutics” (Bioorg Med Chem, 2025).
Converted amounts (≈) assume the structure as drawn.

How the values were obtained:
U-87 MG [1] = assay: Antiproliferative activity against human U-87 MG cells assessed as reduction in cell viability at 100 uM incubated for 72 hrs by Prestoblue-reagent based assay relative to control; type: functional, U-87MG ATCC
SF-268 [2] = assay: Cytotoxicity against human SF-268 cells assessed as reduction in cell viability incubated for 72 hrs by SRB assay; type: functional, cell-based; details: SF-268, 72 h
SH-SY5Y [3] = assay: Cytotoxicity against human SH-SY5Y cells; type: functional, cell-based
[4] = Cytotoxicity against human U373 MG cells assessed as reduction in cell growth incubated for 24 hrs by MTT colorimetric assay; type: functional, cell-based, U-373MG ATCC
SW1088 = assay: Cytotoxicity against human SW1088 cells assessed as reduction in cell growth incubated for 24 hrs by MTT colorimetric assay; type: functional, cell-based; details: SW1088, 24 h
[5] = Toxicity in ip dosed B6D2F1 mouse assessed as maximum tolerated dose measured after 28 days; type: organism-based; details: in vivo, time 28 day
[6] = Cytotoxicity against human GSC-3 cells assessed as reduction in cell viability incubated for 72 hrs by MTS assay; type: functional, cell-based; details: GSC-3, 72 h
[7] = Cytotoxicity against human CHG-5 cells assessed as reduction in cell growth incubated for 48 hrs by MTT assay; type: functional, cell-based; details: CHG-5, 48 h
SH-SY5Y [8] = assay: Cytotoxicity against human SH-SY5Y cells assessed as reduction in cell growth incubated for 48 hrs by MTT assay; type: functional, cell-based
[9] = Cytotoxicity against human SHG-44 cells assessed as reduction in cell growth incubated for 48 hrs by MTT assay; type: functional, cell-based; details: SHG-44, 48 h
U-251 [10] = assay: Cytotoxicity against human U-251MG cells assessed as reduction in cell growth incubated for 48 hrs by MTT assay; type: functional, cell-based; details: U-251, 48 h
[11] = Cytotoxicity against human U-343MG cells assessed as reduction in cell growth incubated for 48 hrs by MTT assay; type: functional, cell-based
[12] = Cytotoxicity against human GL15 cells assessed as reduction in cell growth incubated for 48 hrs by MTT assay; type: functional, cell-based; details: GL15, 48 h
[13] = Cytotoxicity against human CHG-5 cells assessed as reduction in cell viability incubated for 24 hrs by MTT assay; type: functional, cell-based; details: CHG-5, 24 h
[14] = Cytotoxicity against human SHG-44 cells assessed as reduction in cell viability incubated for 24 hrs by MTT assay; type: functional, cell-based; details: SHG-44, 24 h
U-251 [15] = assay: Cytotoxicity against human U-251MG cells assessed as reduction in cell viability incubated for 24 hrs by MTT assay; type: functional, cell-based; details: U-251, 24 h
CCF-STTG1 [16] = assay: Cytotoxicity against human CCF-STTG1 cells assessed as reduction in cell viability incubated for 24 hrs by MTT assay; type: functional, cell-based; details: CCF-STTG1, 24 h
SF-295 = assay: Cytotoxicity against human SF-295 cells assessed as reduction in cell growth incubated for 96 hrs by MTT assay; type: functional, cell-based; details: SF-295, 96 h
H4 = assay: Antiproliferative activity against human H4 cells assessed as reduction in cell viability incubated for 72 hrs by Prestoblue-reagent based assay; type: functional; details: H4, 72 h
GAMG = assay: Antiproliferative activity against human GAMG cells assessed as reduction in cell viability incubated for 48 hrs by MTS reagent based assay; type: functional
[17] = Cytotoxicity against rat ASK cells assessed as reduction in cell growth by SRB assay; type: functional; details: read-out: ED50 (the source's name)
CCF-STTG1 [18] = assay: Cytotoxicity against human CCF-STTG1 cells assessed as reduction in cell growth incubated for 24 hrs by MTT assay; type: functional, cell-based; details: CCF-STTG1, 24 h
CCF-STTG1 [19] = assay: Cytotoxicity against human CCF-STTG1 cells assessed as reduction in cell viability incubated for 48 hrs by MTT assay; type: functional, cell-based; details: CCF-STTG1, 48 h
[20] = Cytotoxicity against human CHG-5 cells assessed as reduction in cell viability incubated for 48 hrs by MTT assay; type: functional, cell-based; details: CHG-5, 48 h
[21] = Cytotoxicity against human SHG-44 cells assessed as reduction in cell viability incubated for 48 hrs by MTT assay; type: functional, cell-based; details: SHG-44, 48 h
U-251 [22] = assay: Cytotoxicity against human U-251MG cells assessed as reduction in cell viability incubated for 48 hrs by MTT assay; type: functional, cell-based; details: U-251, 48 h
SF-268 [23] = assay: Antiproliferative activity against human SF-268 cells; type: functional, cell-based
U-87 MG [24] = assay: Cytotoxicity against human U-87 MG cells by resazurin dye based assay; type: functional, cell-based, U-87MG ATCC
[25] = Cytotoxicity against human U87MG.deltaEGFR cells by resazurin dye based assay; type: functional, cell-based
[26] = Cytotoxicity against human CHG-5 cells assessed as reduction in cell growth incubated for 24 hrs by MTT assay; type: functional, cell-based; details: CHG-5, 24 h
[27] = Cytotoxicity against human SHG-44 cells assessed as reduction in cell growth incubated for 24 hrs by MTT assay; type: functional, cell-based; details: SHG-44, 24 h

For `COc1ccc2c3c([nH]c2c1)[C@@H](C)NCC3`, which inhibition at 100 µM (U-87 MG [1]) is on record?
The inhibition at 100 µM was 38%.

With `CC/C=C(\C)[C@H](O)[C@H](C)/C=C(C)/C=C(\C)C/C(C)=C/Cc1nc(OC)c(OC)c(O)c1C` as the compound, how does the IC50 (SF-268 [2]) read?
Its IC50 is 45.9 µM.

Which IC50 (SH-SY5Y [3]) does the source give for `Cc1cc2nc3[nH]c(=O)[nH]c(=O)c3nc2cc1C` [LUMICHROME] here?
Its IC50 is 75.2 µM.

For `O=C1c2c(O)ccnc2-c2nccc3c2c1nc1ccccc13`, which IC50 [4] is on record?
Its IC50 is 6 µM.

What about the IC50 (SW1088) of the same compound?
The IC50 was 6 µM.

And the MTD at 672 h [5]?
Its MTD at 672 h is > 160 mg/kg.

With `COc1cc2c(c(Oc3ccc(C=O)cc3)c1OC)C[C@H]1c3c(c(OC)c(OC)c(OC)c3-2)CCN1C` as the compound, how does the IC50 [6] read?
Its IC50 is 14.5 µg/mL (≈ 28.7 µM).

Which IC50 [7] does the source give for `CO[C@@H]1C=C[C@@]23c4cc5c(cc4CN(CCc4ccccc4)[C@@H]2CN(C)[C@H]3C1)OCO5` here?
The IC50 was 17.7 µM.

And the IC50 (SH-SY5Y [8])?
The IC50 was 15.8 µM.

And the IC50 [9]?
Its IC50 is 15.4 µM.

And the IC50 (U-251 [10])?
Its IC50 is 18.4 µM.

And the IC50 [11]?
The IC50 was 14.6 µM.

And the IC50 [12]?
The IC50 was 18.9 µM.

Which IC50 (SH-SY5Y [3]) does the source give for `Cc1cc2[nH]c(=O)c(=O)n(CC(O)C(O)C(O)CO)c2cc1C` (configuration not stated) here?
The IC50 was 71.2 µM.

Which IC50 [13] does the source give for `CC(=O)O[C@@H]1C2C3C[C@H]4C5=Nc6ccccc6[C@]51C[C@@H]2[N+]4([O-])[C@@H](C)[C@@H]3C(=O)O` (some centres not stated) here?
The IC50 was 12.1 µM.

What about the IC50 [14] of the same compound?
The IC50 was 9.2 µM.

What about the IC50 (U-251 [15]) of the same compound?
Its IC50 is 9.7 µM.

And the IC50 (CCF-STTG1 [16])?
Its IC50 is 11.4 µM.

For `CN1C(=O)C(=O)NC[C@@H]1CNc1ccc(C(=O)O)cc1`, which IC50 (SH-SY5Y [3]) is on record?
The IC50 was 54.3 µM.

With `COc1cc2c(cc1OC)[C@H](O)[C@@H]1c3c(cc4c(c3-2)OCO4)CC[N@@+]1(C)[O-]` as the compound, how does the IC50 (SF-295) read?
Its IC50 is 1.62 µg/mL (≈ 4.36 µM).

With `c1ccc2c(c1)[nH]c1cnccc12` [NORHARMANE] as the compound, how does the IC50 (H4) read?
Its IC50 is 49 µM.

For `C/C=C(\C)[C@H](O)[C@H](C)/C=C(C)/C=C(\C)C/C(C)=C/Cc1nc(OC)c(OC)c(O)c1C`, which IC50 (SF-268 [2]) is on record?
Its IC50 is 30.2 µM.

For `O=P1(N(CCCl)CCCl)NCCCO1` (configuration not stated) [CYCLOPHOSPHAMIDE ANHYDROUS], which IC50 (GAMG) is on record?
The IC50 was 50.9 µM.

With `COc1c(OC)c(OC)c2c3c(cc4ccccc42)NC(=O)c13` [PIPEROLACTAM C] as the compound, how does the EC50 [17] read?
The EC50 was 12.8 µg/mL (≈ 41.3 µM).

Which IC50 (SH-SY5Y [3]) does the source give for `N#Cc1cnc2cccc(O)c2c1O` here?
Its IC50 is 62.6 µM.

Which IC50 [6] does the source give for `COc1cc2c(c(Oc3ccc(C=O)cc3)c1OC)C[C@H]1c3c(cc(OC)c(OC)c3-2)CCN1C` here?
The IC50 was 19.2 µg/mL (≈ 40.5 µM).

With `COc1cc2c(cc1O)C(=O)O[C@@H]1CC=C3CC[N+](C)([O-])[C@H]3[C@H]21` (some centres not stated) as the compound, how does the IC50 (CCF-STTG1 [18]) read?
The IC50 was 93 µM.

Which IC50 [6] does the source give for `COc1cc2c(c(Oc3ccc(CO)cc3)c1OC)C[C@H]1c3c(cc(OC)c(OC)c3-2)CCN1C` here?
The IC50 was 15.2 µg/mL (≈ 31.9 µM).

With `C/C=C1\C2C[C@H]3C4=Nc5ccccc5[C@]45C[C@@H](C2[C@H]5OC(C)=O)[N+]3([O-])[C@H]1C` (some centres not stated) as the compound, how does the IC50 [13] read?
Its IC50 is 15.8 µM.

And the IC50 [14]?
Its IC50 is 17.4 µM.

And the IC50 (U-251 [15])?
Its IC50 is 14.9 µM.

And the IC50 (CCF-STTG1 [16])?
Its IC50 is 16.7 µM.

With `COc1ccc2c3c([nH]c2c1)C(C)=NCC3` [HARMALINE] as the compound, how does the IC50 (H4) read?
Its IC50 is 19.6 µM.

What about the inhibition at 100 µM (U-87 MG [1]) of the same compound?
Its inhibition at 100 µM is 14%.

For `Oc1cc2c3c(c1O)c1cc4c(cc1c[n+]3CC2)OCO4`, which IC50 (CCF-STTG1 [19]) is on record?
Its IC50 is 10.3 µM.

And the IC50 [20]?
The IC50 was 10.2 µM.

What about the IC50 [21] of the same compound?
The IC50 was 9.4 µM.

What about the IC50 (U-251 [22]) of the same compound?
The IC50 was 11.8 µM.

With `C[C@@H]1CC[C@H]2C(C)(C)[C@H](O)CC[C@]2(C)[C@@]12Cc1c(O)cc3c(c1O2)CNC3=O` as the compound, how does the IC50 (SF-268 [23]) read?
Its IC50 is 67.2 µM.

For `COc1cc(OC)c2c(=O)c3ccccc3n(C)c2c1`, which IC50 (U-87 MG [24]) is on record?
The IC50 was 17.6 µM.

And the IC50 [25]?
Its IC50 is 8.88 µM.

What does the source list for `CN[C@H]1C[C@H](OC)C=C[C@@]12C(=O)N(CCCC(=O)O)Cc1cc3c(cc12)OCO3`?
IC50 [7]: 12.2 µM; IC50 (SH-SY5Y [8]): 13.7 µM; IC50 [9]: 10.8 µM; IC50 (U-251 [10]): 11.3 µM; IC50 [11]: 12.2 µM; IC50 [12]: 11.4 µM

For `O=C1c2cccnc2-c2nccc3c2c1nc1ccccc13` [ASCIDIDEMIN], which IC50 [4] is on record?
Its IC50 is 0.5 µM.

What about the IC50 (SW1088) of the same compound?
The IC50 was 0.6 µM.

And the MTD at 672 h [5]?
Its MTD at 672 h is 40 mg/kg.

With `COc1ccc2c(c1OC)-c1c(OC)c(O)cc3c1[C@H](C2)[N@+](C)([O-])CC3` as the compound, how does the IC50 (CCF-STTG1 [18]) read?
The IC50 was 81.8 µM.

And the IC50 [26]?
Its IC50 is 83.7 µM.

What about the IC50 [27] of the same compound?
Its IC50 is 83.7 µM.

What does the source list for `O[C@H]1[C@H]2c3cc4c(cc3C=[N+]3CCC(=C[C@@H]1O)[C@H]23)OCO4`?
IC50 (CCF-STTG1 [19]): 10.3 µM; IC50 [20]: 10.2 µM; IC50 [21]: 9.4 µM; IC50 (U-251 [22]): 11.8 µM
